Assay results taken from article PMC12559910, “A New N6‐Methyladenosine Inhibitor, Celastrol, Alleviates Rheumatoid Arthritis via Targeting IGF2BP3” (MedComm, 2025).

Molecular target: T1, recombinant IGF2BP3 protein (Homo sapiens, UniProt O00425)
T1 construct: recombinant, amine-coupled to CM5 chip
Assay: SPR (Biacore T200, CM5 chip, steady-state fit)
Type: binding

T1 sequence (O00425 whole entry): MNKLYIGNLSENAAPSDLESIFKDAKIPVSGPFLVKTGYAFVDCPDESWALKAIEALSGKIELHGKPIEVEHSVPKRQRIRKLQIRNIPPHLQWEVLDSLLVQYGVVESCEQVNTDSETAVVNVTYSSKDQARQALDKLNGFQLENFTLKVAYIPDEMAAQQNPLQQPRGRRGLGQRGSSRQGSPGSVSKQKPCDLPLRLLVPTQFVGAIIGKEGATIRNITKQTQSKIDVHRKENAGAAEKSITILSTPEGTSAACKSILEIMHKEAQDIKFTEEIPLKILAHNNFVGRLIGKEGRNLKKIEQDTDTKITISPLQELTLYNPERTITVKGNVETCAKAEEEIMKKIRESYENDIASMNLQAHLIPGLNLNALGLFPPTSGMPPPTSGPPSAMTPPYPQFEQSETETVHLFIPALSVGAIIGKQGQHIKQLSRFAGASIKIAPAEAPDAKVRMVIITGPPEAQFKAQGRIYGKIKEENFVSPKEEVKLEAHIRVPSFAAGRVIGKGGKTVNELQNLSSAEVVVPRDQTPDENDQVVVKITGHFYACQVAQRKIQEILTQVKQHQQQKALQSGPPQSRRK

CC1=C(O)C(=O)C=C2C1=CC=C1[C@@]2(C)CC[C@@]2(C)[C@@H]3C[C@](C)(C(=O)O)CC[C@]3(C)CC[C@]12C [celastrol]
Kd: 1.65 µM
